What was measured:
human recombinant sEH = biological target: T1, human recombinant sEH (Homo sapiens, UniProt P34913); experiment: Fluorescence-based sEH activity assay (PHOME substrate), human enzyme; assay type: biochemical; details: for IC50: dose-dependent assay, read-out: Human sEH Inhibition IC50
T1 construct: purchased Cayman Chemical 10011671
T1 sequence (P34913 1-555): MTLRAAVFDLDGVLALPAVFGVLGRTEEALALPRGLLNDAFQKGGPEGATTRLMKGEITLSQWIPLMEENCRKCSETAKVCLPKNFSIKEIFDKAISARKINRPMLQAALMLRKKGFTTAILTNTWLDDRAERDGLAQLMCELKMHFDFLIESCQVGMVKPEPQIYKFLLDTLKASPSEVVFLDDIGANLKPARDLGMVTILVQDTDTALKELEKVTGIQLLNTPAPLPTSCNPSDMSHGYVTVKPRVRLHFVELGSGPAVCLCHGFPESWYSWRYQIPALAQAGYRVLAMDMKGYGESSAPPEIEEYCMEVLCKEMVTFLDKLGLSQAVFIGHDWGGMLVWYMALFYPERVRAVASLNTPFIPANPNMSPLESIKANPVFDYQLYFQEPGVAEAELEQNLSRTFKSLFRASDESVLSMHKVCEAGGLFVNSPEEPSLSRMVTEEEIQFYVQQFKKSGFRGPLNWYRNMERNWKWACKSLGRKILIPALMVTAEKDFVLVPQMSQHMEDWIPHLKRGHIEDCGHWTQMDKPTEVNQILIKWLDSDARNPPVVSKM
Experimental: A fluorescence-based sEH activity assay provided a convenient method for screening human epoxide hydrolase inhibitors. The assay utilized (3-Phenyl-oxiranyl)-acetic acid cyano-(6-methoxy-naphthalen-2-yl)-methyl ester (PHOME) as a substrate. […] The inhibitory function of the compounds on sEH activity was tested as detailed in the product manual from Cayman Chemical. Briefly, 3 mL sEH assay buffer (10×) was diluted with 27 mL HPLC-grade water. This final assay buffer, 25 mM bis-tris (pH 7.0), was used in the assay and for the dilution of the soluble epoxide hydrolase (sEH) enzyme. Amounts of 12 μL each of human and mouse recombinant sEH were thawed on ice. Prior to assaying, 588 μL cold assay buffer was added directly to the enzyme vial. An amount of 190 μL assay buffer and 5 μL solvent (40% DMSO in assay buffer) were added to the background wells. In the 100% initial activity wells, 185 μL assay buffer, 5 μL sEH, and 5 μL solvent were added. In inhibitor wells, 185 μL assay buffer, 5 μL solution of the synthesized compounds, and 5 μL of recombinant enzyme solution were added.
Average fluorescence (AF) of the background wells and 100% initial activity in the wells and of each of the inhibitors were determined. The background AF was subtracted from the 100% initial activity and inhibitor AFs. The % sEH activity is calculated as (inhbitited AF/% 100 initial activity) × 100.
Multiple concentrations of the inhibitors were tested followed by plotting of the percent activity as a function of inhibitor concentration to determine the IC50 values.

[1] = Plasma protein binding (equilibrium dialysis), mouse; assay type: in vitro ADME; details: for fraction unbound at 5 h, 1 μM: plasma (non-diluted), pH 7.4, read-out: Plasma Protein Binding Mouse % of Bound Comp (converted)
Experimental: The assay was performed in a multiple-use 96-well dialysis unit (HTD96b dialyzer). Each individual well unit consisted of 2 chambers separated by a vertically aligned dialysis membrane of predetermined pore size (MWCO 12–14 kDa). An amount of 120 μL of non-diluted plasma spiked with the compound (1 μM, final DMSO concentration 1%) was added to one chamber, and the same volume of PBS buffer with pH 7.4 was added to the other chamber. The HTD96b dialyzer was covered with adhesive sealing film and incubated at 37 °C and shaken at 100 rpm for 5 h. For sample preparation, an aliquot of the content of each chamber was mixed with the same volume of the blank opposite matrix. To define the non-specific loss of the compound during this assay, a standard solution was created by mixing an aliquot of spiked plasma with a blank buffer without dialysis. Two aliquots of the standard solution were incubated at 37 °C and shaken at 100 rpm for 5 h (recovery samples). The other two aliquots were immediately diluted with acetonitrile and stored at 4 °C until LC–MS/MS analysis (stability samples). All samples were diluted 5-fold with 100% methanol with subsequent plasma protein sedimentation by centrifuging at 6000 rpm for 5 min. Supernatants were analyzed using the HPLC system coupled with a tandem mass spectrometer.

Microsomal stability = assay type: in vitro ADME; details: pH 7.4, human liver microsomes; for remaining at 1 h, 2 μM: read-out: Human Metabolic Stability % Remaining after 1 h; for half-life at 2 μM: read-out: Human Metabolic Stability Half Life
Experimental: Human microsomal incubations were carried out in 96-well plates in 5 aliquots of 30 μL each (one for each time point). Human liver microsomal incubation medium comprised of phosphate buffer (100 mM, pH 7.4), MgCl2 (3.3 mM), NADPH (3 mM), glucose-6-phosphate (5.3 mM), glucose-6-phosphate dehydrogenase (0.67 units/mL) with 0.42 mg of liver microsomal protein per ml. In the control reactions, the NADPH-cofactor system was substituted with phosphate buffer. Test compounds (2 μM, final solvent concentration 1.6%) were incubated with microsomes at 37 °C and shaken at 100 rpm. Each reaction was performed in duplicates. Five time points over 40 min were analyzed. The reactions were stopped by adding 5 volumes of methanol containing the internal standard to the incubation aliquots, followed by protein sedimentation by centrifuging at 5500 rpm for 4 min. Supernatants were analyzed using the HPLC system coupled with a tandem mass spectrometer.

[2] = In vivo pharmacokinetic experiment; parameters: species or system C57BL/6J mice; details: mice, 10 mg/kg; for Cmax (in words): oral
Experimental: Twenty 8–9-week-old male C57BL/6J mice were taken for the in vivo pharmacokinetic experiment. They were divided into four groups, each containing five mice. Each group was used for either oral or intraperitoneal administration of compound 4f or 15a. Both the compounds were reconstituted in 5% DMSO, 5% TWEEN 80 in saline water (pH = 7.4). The mice were orally and intraperitoneally administered compounds at 10 mg/kg dose. Blood samples were collected at 0, 0.5, 1, 2, 4, 6, and 24 h after administration of the compound, and serum was isolated with the compound. For the pharmacokinetic study, 10 μL of serum samples from mice were extracted with a 2:1 mixture of LC/MS-grade chloroform and methanol, followed by intermittent vortexing, and then centrifuged at 4000 rpm for 10 min at 4 °C. Thereafter, the supernatant was collected and analyzed by LC−MS/MS to measure the concentrations of compounds 4f and 15a in the serum.

Row | Structure (SMILES) | Human sEH % Inhibition (human recombinant sEH) | IC50 (human recombinant sEH) | compound recovery/stability in mouse plasma after 5 h incubation (%) [1] | fraction unbound at 5 h, 1 μM [1] | remaining at 1 h, 2 μM (Microsomal stability) | half-life at 2 μM (Microsomal stability) | half-life ([2]; male, C57BL/6J, mouse, serum, other: oral and intraperitoneal, oral and intraperitoneal administration, read-out: plasma half-life) | Cmax (in words) [2]
1 | O=C(NC12CC3CC(CC(C3)C1)C2)NS(=O)(=O)c1ccc(OC(F)(F)F)cc1 [Compound 4f] | 96.05% | 1.69 nM | 106% | 0.02 | 80% | 1.77 h | < 2 h | better than that of 15a
2 | O=C(NC12CC3CC(CC(C3)C1)C2)NS(=O)(=O)c1ccc2ccccc2c1 [Compound 4l] | 96.79% | 1.21 nM | 88% | 0.02 | 45% | 0.557 h | – | promising Cmax value

— publication PMC11242993, “Evaluation of the Therapeutic Potential of Sulfonyl Urea Derivatives as Soluble Epoxide Hydrolase (sEH) Inhibitors” (Molecules, 2024)
